Results: US7977322B2 (Vertex Pharmaceuticals Incorporated, priority 2004, dated 2011)
pEC50: −log10 of the molar value.

Biological target: T1, ΔF508-CFTR (Homo sapiens, UniProt P13569, DEL508-508)
T1 construct: expressed in transfected cells
Assay: Membrane potential optical (FRET/VIPR) assay, identification of correction compounds
Assay type: cell-based
Conditions: Table 3, assay not given; for Emax: read-out: % Activity / % Efficacy (relative efficacy)
Method in brief: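 NIH3T3 mouse fibroblasts stably expressing ΔF508-CFTR were exposed to compound for 16 h at 37° C in serum-free medium, then loaded with DiSBAC2(3)/CC2-DMPE. After addition of 10 μM forskolin plus 20 μM genistein in Cl⁻-free gluconate bath (pH 7.4), depolarization from Cl⁻ efflux was read by FRET (VIPR II).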

T1 sequence (P13569 with tags, fused parts or gaps DEL508-508): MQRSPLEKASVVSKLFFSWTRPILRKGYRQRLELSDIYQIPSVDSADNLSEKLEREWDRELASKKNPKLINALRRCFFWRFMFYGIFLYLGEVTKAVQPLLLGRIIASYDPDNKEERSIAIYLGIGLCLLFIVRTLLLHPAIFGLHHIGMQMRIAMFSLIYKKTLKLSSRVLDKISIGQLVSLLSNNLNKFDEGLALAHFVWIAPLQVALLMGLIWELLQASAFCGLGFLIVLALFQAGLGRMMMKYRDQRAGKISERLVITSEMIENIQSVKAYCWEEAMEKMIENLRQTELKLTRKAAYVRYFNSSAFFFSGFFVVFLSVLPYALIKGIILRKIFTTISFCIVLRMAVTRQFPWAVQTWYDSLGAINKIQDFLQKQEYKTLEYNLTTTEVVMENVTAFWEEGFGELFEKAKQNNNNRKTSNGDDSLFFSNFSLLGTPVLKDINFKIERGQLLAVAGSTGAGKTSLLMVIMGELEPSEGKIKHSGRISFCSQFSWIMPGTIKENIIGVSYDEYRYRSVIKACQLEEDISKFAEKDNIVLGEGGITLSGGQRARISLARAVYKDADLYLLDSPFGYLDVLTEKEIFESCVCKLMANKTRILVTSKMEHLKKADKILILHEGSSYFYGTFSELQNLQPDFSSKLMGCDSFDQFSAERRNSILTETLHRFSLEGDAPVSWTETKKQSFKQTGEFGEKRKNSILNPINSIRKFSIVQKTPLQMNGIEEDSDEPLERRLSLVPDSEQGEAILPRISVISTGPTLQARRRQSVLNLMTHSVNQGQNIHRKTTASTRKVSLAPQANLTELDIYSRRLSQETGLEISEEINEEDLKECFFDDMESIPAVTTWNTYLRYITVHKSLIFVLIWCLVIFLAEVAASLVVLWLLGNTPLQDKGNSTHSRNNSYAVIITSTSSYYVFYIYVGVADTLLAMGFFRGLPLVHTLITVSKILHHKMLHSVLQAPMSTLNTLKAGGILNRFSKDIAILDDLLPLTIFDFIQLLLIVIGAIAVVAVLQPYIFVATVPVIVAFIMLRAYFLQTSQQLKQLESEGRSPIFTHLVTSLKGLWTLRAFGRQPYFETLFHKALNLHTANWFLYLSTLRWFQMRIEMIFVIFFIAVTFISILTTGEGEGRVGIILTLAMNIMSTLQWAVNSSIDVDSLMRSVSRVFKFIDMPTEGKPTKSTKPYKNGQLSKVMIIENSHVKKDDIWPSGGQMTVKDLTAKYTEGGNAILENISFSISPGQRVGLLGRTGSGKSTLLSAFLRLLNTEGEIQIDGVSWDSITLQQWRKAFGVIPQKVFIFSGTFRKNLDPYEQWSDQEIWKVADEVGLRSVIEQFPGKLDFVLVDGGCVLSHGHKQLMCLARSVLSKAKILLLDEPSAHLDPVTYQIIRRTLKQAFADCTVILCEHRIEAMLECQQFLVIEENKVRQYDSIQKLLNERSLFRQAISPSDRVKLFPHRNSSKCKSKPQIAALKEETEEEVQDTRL

| SMILES | pEC50 | Emax | % Activity / % Efficacy (relative efficacy) |
| --- | --- | --- | --- |
| COc1ccccc1Cc1cnc(NC(=O)C2(c3ccccc3OC)CC2)s1 [Example 70] | > 5.00 |  | ++ (“++” means between 25% to 100%) |
| O=C(Nc1ncc(C(NC(CO)CO)c2ccccc2Cl)s1)C1(c2ccc3c(c2)OCO3)CC1 (stereo not drawn) [Example 433] | > 5.00 | > 100% |  |
| COc1ccccc1C1(C(=O)Nc2ncc(C(c3ccccc3Cl)N3CC[C@@H](O)C3)s2)CC1 (stereo partly drawn) [Example 443] | > 5.00 | 25 to 100% |  |
| CCOc1ccccc1C(NC(CO)C(C)C)c1cnc(NC(=O)C2(c3ccc4c(c3)OCO4)CC2)s1 (stereo not drawn) [Example 478] |  | > 100% |  |
| C=CCOC(c1cnc(NC(=O)C2(c3ccc4c(c3)OCO4)CC2)s1)c1ccccc1Cl (stereo not drawn) [Example 251] | > 5.00 | > 100% |  |
| O=C(Nc1ncc(C(NCCCn2ccnc2)c2ccccc2Cl)s1)C1(c2ccc3c(c2)OCO3)CC1 (stereo not drawn) [Example 408] | > 5.00 | 25 to 100% |  |
| COc1ccc(C2(C(=O)Nc3nc(-c4cccc(Cl)c4)cs3)CC2)cc1 [Example 123] | > 5.00 |  | +++ (“+++” means>100%) |
| COc1cccc(C(c2cnc(NC(=O)C3(c4ccc5c(c4)OCO5)CC3)s2)N(C)C)c1 (stereo not drawn) [Example 366] | 4.60 to 5.00 | > 100% |  |
| CCCc1nc(NC(=O)C2(c3ccc(OC)cc3)CC2)sc1C(=O)OCC [Example 184] | > 5.00 |  | +++ (“+++” means>100%) |
| COc1ccc(C2(C(=O)Nc3ncc(Cc4ccc(F)cc4F)s3)CC2)cc1 [Example 264] | > 5.00 |  | +++ (“+++” means>100%) |
| COc1ccc(C2(C(=O)Nc3ncc(Cc4ccccc4Cl)s3)CC2)cc1OC [Example 55] | > 5.00 |  | +++ (“+++” means>100%) |
| COc1ccc(Cc2cnc(NC(=O)C3(c4ccc(OC)cc4)CC3)s2)cc1 [Example 180] | > 5.00 |  | +++ (“+++” means>100%) |
| O=C(Nc1ncc(Cc2ccccc2Cl)s1)C1(c2ccccc2F)CCCCC1 [Example 306] | > 5.00 | > 100% |  |
| COc1ccc(C2(C(=O)Nc3ncc(Cc4ncccc4OC)s3)CC2)cc1 [Example 263] | > 5.00 |  | +++ (“+++” means>100%) |
| CCC(CO)NC(c1cnc(NC(=O)C2(c3ccc4c(c3)OCO4)CC2)s1)c1ccccc1Cl (stereo not drawn) [Example 486] | > 5.00 | > 100% |  |
| O=C(Nc1ncc(C(OCCN2CCCC2)c2ccccc2Cl)s1)C1(c2ccc3c(c2)OCO3)CC1 (stereo not drawn) [Example 255] | > 5.00 |  |  |
| CN(C)CC(=O)Nc1ccc(C2(C(=O)Nc3ncc(Cc4ccccc4Cl)s3)CC2)cc1 [Example 312] | > 5.00 | 25 to 100% |  |
| O=C(Nc1ncc(Cc2ccccc2Cl)s1)C1(c2ccc(N3CCOCC3)cc2)CC1 [Example 313] | 4.60 to 5.00 | 25 to 100% |  |
| CCCC[C@H](CO)NC(c1cnc(NC(=O)C2(c3ccc4c(c3)OCO4)CC2)s1)c1ccccc1Cl (stereo partly drawn) [Example 497] | > 5.00 | > 100% |  |
| COc1ccc(C2(C(=O)Nc3ncc(Cc4cccnc4OC)s3)CC2)cc1 [Example 176] | > 5.00 |  | +++ (“+++” means>100%) |
| Cc1cccc(C2(C(=O)Nc3ncc(C(c4ccccc4Cl)N4CC[C@@H](O)C4)s3)CC2)c1 (stereo partly drawn) [Example 450] | > 5.00 | > 100% |  |

| SMILES | pEC50 | Emax | % Activity / % Efficacy (relative efficacy) |
| --- | --- | --- | --- |
| CC(C)C[C@H](CO)NC(c1cnc(NC(=O)C2(c3ccc4c(c3)OCO4)CC2)s1)c1ccccc1Cl (stereo partly drawn) [Example 438] | > 5.00 | > 100% |  |
| O=C(Nc1nn(-c2ccccc2)cc1-c1cccs1)C1(c2ccc3c(c2)OCO3)CC1 [Example 286] | 4.60 to 5.00 | 25 to 100% |  |
| CCN(CC)C(c1cnc(NC(=O)C2(c3ccc4c(c3)OCO4)CC2)s1)c1ccccc1OC (stereo not drawn) [Example 365] | > 5.00 | > 100% |  |
| CCN(CC)C(c1cnc(NC(=O)C2(c3ccc4c(c3)OCO4)CC2)s1)C(C)(C)C (stereo not drawn) [Example 393] | 4.60 to 5.00 | > 100% |  |
| COc1ccc(C2(C(=O)Nc3ncc(C(=O)c4ccccc4Cl)s3)CC2)cc1 [Example 44] | > 5.00 | > 100% |  |
| CN1CCN(c2cccc(C3(C(=O)Nc4ncc(Cc5ccccc5Cl)s4)CC3)c2)CC1 [Example 314] | > 5.00 | 25 to 100% |  |
| CN(C)CCNC(c1cnc(NC(=O)C2(c3ccc4c(c3)OCO4)CC2)s1)c1ccccc1Cl (stereo not drawn) [Example 187] | > 5.00 |  | +++ (“+++” means>100%) |
| O=C(Nc1ncc(Cc2ccccc2Cl)s1)C1(c2ccc(F)cc2)CCCC1 [Example 26] | > 5.00 | > 100% |  |
| O=C(Nc1ncc(Cc2ccccc2Cl)s1)C1(c2cccc(N3CCOCC3)c2)CC1 [Example 315] | > 5.00 | 25 to 100% |  |
| CS(=O)(=O)c1ccc(C(c2cnc(NC(=O)C3(c4ccc5c(c4)OCO5)CC3)s2)N2CCC[C@H]2C(N)=O)cc1 (stereo partly drawn) [Example 377] | 4.60 to 5.00 | 25 to 100% |  |
| CC(C)(C)C(c1cnc(NC(=O)C2(c3ccc4c(c3)OCO4)CC2)s1)N1CC[C@@H](O)C1 (stereo partly drawn) [Example 390] | 4.60 to 5.00 | > 100% |  |
| COc1cccc(-c2csc(NC(=O)C3(c4ccc5c(c4)OCO5)CC3)n2)c1 [Example 114] | > 5.00 |  | +++ (“+++” means>100%) |
| COc1ccc(C2(C(=O)Nc3nc(-c4ccc(S(C)(=O)=O)cc4)cs3)CC2)cc1 [Example 125] | > 5.00 |  | +++ (“+++” means>100%) |
| CCOc1ccccc1C(N[C@@H](CO)CC(C)C)c1cnc(NC(=O)C2(c3ccc4c(c3)OCO4)CC2)s1 (stereo partly drawn) [Example 476] | > 5.00 |  |  |
| COc1ccccc1Sc1cnc(NC(=O)C2(c3ccc4c(c3)OCO4)CC2)s1 [Example 99] | > 5.00 |  | +++ (“+++” means>100%) |
| O=C(Nc1ncc(Cc2ccncc2Cl)s1)C1(c2ccc3c(c2)OCO3)CC1 [Example 265] | > 5.00 |  | +++ (“+++” means>100%) |
| CS(=O)(=O)c1ccc(C(c2cnc(NC(=O)C3(c4ccc5c(c4)OCO5)CC3)s2)N2CCOCC2)cc1 (stereo not drawn) [Example 382] | 4.60 to 5.00 | > 100% |  |
| Cc1ccccc1C(N[C@@H](CO)C(C)C)c1cnc(NC(=O)C2(c3ccc4c(c3)OCO4)CC2)s1 (stereo partly drawn) [Example 479] | > 5.00 | > 100% |  |
| Cc1ccccc1Cc1cnc(NC(=O)C2(c3ccc4c(c3)OCO4)CC2)s1 [Example 281] | > 5.00 |  | +++ (“+++” means>100%) |
| COc1ccc(-c2csc(NC(=O)C3(c4ccc(OC)cc4)CC3)n2)cc1 [Example 79] | > 5.00 |  | +++ (“+++” means>100%) |
| Cn1nc(-c2ccc(Cl)c(Cl)c2)cc1NC(=O)C1(c2ccc3c(c2)OCO3)CC1 [Example 287] | > 5.00 | > 100% |  |

The remaining lines, values ahead:

| pEC50 | Emax | % Activity / % Efficacy (relative efficacy) | SMILES |
| --- | --- | --- | --- |
| > 5.00 | > 100% |  | O=C(Nc1ncc(C(c2ccccc2F)N2CCCC2)s1)C1(c2ccc3c(c2)OCO3)CC1 (stereo not drawn) [Example 465] |
| > 5.00 | 25 to 100% |  | O=C(Nc1ncc(C(c2cccc3c2OC(F)(F)O3)N2CCCC2)s1)C1(c2ccc3c(c2)OCO3)CC1 (stereo not drawn) [Example 494] |
| > 5.00 |  | +++ (“+++” means>100%) | COC(c1cnc(NC(=O)C2(c3ccc4c(c3)OCO4)CC2)s1)c1ccccc1Cl (stereo not drawn) [Example 260] |
| > 5.00 | > 100% |  | O=C(Nc1ncc(C(NCCO)c2ccccc2Cl)s1)C1(c2ccc3c(c2)OCO3)CC1 (stereo not drawn) [Example 416] |
| > 5.00 | > 100% |  | O=C(Nc1ncc(C(Cc2ccccc2Cl)N2CCCCC2)s1)C1(c2ccc3c(c2)OCO3)CC1 (stereo not drawn) [Example 454] |
| 4.60 to 5.00 | > 100% |  | COc1ccc(C(c2cnc(NC(=O)C3(c4ccc5c(c4)OCO5)CC3)s2)N2CCCC2)cc1 (stereo not drawn) [Example 362] |
| > 5.00 | > 100% |  | O=C(Nc1ncc(C(c2ccccc2C(F)(F)F)N2CC[C@@H](O)C2)s1)C1(c2ccc3c(c2)OCO3)CC1 (stereo partly drawn) [Example 464] |
| > 5.00 | > 100% |  | O=C(Nc1ncc(C(c2ccccc2Cl)N2CC[C@H](O)C2)s1)C1(c2ccc3c(c2)OCO3)CC1 (stereo partly drawn) [Example 310] |
| > 5.00 | > 100% |  | COc1ccccc1C(c1cnc(NC(=O)C2(c3ccc4c(c3)OCO4)CC2)s1)N1CCCC1 (stereo not drawn) [Example 354] |
| > 5.00 | > 100% |  | O=C(Nc1ncc(C(c2ccccc2)N2CCCCC2)s1)C1(c2ccc3c(c2)OCO3)CC1 (stereo not drawn) [Example 371] |
| > 5.00 | > 100% |  | CCOc1ccccc1C(c1cnc(NC(=O)C2(c3ccc4c(c3)OCO4)CC2)s1)N1CC[C@@H](O)C1 (stereo partly drawn) [Example 473] |
| > 5.00 | > 100% |  | CC(=O)O[C@@H]1CCN(C(c2cnc(NC(=O)C3(c4ccc5c(c4)OCO5)CC3)s2)c2ccccc2Cl)C1 (stereo partly drawn) [Example 321] |
| > 5.00 | > 100% |  | O=C(Nc1ncc(C(c2ccccc2)N2CCOCC2)s1)C1(c2ccc3c(c2)OCO3)CC1 (stereo not drawn) [Example 369] |
| > 5.00 | > 100% |  | CS(=O)(=O)c1ccc(C(c2cnc(NC(=O)C3(c4ccc5c(c4)OCO5)CC3)s2)N2CCCCC2)cc1 (stereo not drawn) [Example 388] |
| > 5.00 | > 100% |  | O=C(Nc1ncc(C(c2ccccc2)N2CCCC2)s1)C1(c2ccc3c(c2)OCO3)CC1 (stereo not drawn) [Example 359] |
| > 5.00 | > 100% |  | O=C(Nc1ncc([C@@H](c2ccccc2Cl)N2CCCCC2)s1)C1(c2ccc3c(c2)OCO3)CC1 [Example 211] |
| > 5.00 | > 100% |  | COc1ccccc1C(c1cnc(NC(=O)C2(c3ccc4c(c3)OCO4)CC2)s1)N1CCCCC1 (stereo not drawn) [Example 349] |
| 4.60 to 5.00 | > 100% |  | O=C(Nc1ncc(C(c2ccccc2)N2CCC(O)CC2)s1)C1(c2ccc3c(c2)OCO3)CC1 (stereo not drawn) [Example 351] |
